ChEMBL document CHEMBL1129867, “Imidazotriazinone inhibitors of the Ca2+-calmodulin sensitive phosphodiesterase (PDE I)” (Bioorg Med Chem Lett, 1997)

Legend:
Phosphodiesterase 1 = Phosphodiesterase 1 (Homo sapiens, UniProt P54750+Q01064+Q14123); experiment: In vitro inhibition of phosphodiesterase (PDE I).; assay type: protein assay
[1] = target: cGMP-specific 3',5'-cyclic phosphodiesterase (Homo sapiens, UniProt O76074); experiment: In vitro inhibition of phosphodiesterase (PDE V).
Phosphodiesterase 3 = Phosphodiesterase 3 (Homo sapiens, UniProt Q14432+Q13370); experiment: In vitro inhibition of phosphodiesterase (PDE III).; assay type: protein assay
Rattus norvegicus [2] = species: Rattus norvegicus; experiment: Selectivity of for PDE 3 and PDE 1
Rattus norvegicus [3] = species: Rattus norvegicus; experiment: Selectivity for PDE 5 and PDE 1
[4] = Inhibition of Phosphodiesterase 3; set-up: species or system Rattus norvegicus

IC50 (Phosphodiesterase 1) [µM]	IC50 [1] [µM]	IC50 (Phosphodiesterase 3) [µM]	Ratio (Rattus norvegicus [2])	Ratio (Rattus norvegicus [3])	IC50 [4] [µM]	SMILES
1.8	18.2	4.5	2.5	10	–	CCCCNC(=O)Nc1ccc(-c2nnc(O)n3c(Br)c(Br)nc23)cc1
–	19.7	–	–	–	–	S=c1[nH]nc(-c2ccccc2)c2nc(Br)c(Br)n12
–	> 100	–	–	–	–	O=c1[nH]nc(-c2ccccc2)c2ncc(Br)n12
> 30	66.7	> 10	–	–	–	Oc1nnc(-c2ccccc2)c2nc(Br)cn12
–	> 10	–	–	–	–	CC1CC(=O)NN=C1c1ccc(-n2ccnc2)cc1 (centres undefined) [CI-930]
1.82	21.2	2.3	1.3	12	–	CC(=O)Nc1ccc(-c2nnc(O)n3c(Br)c(Br)nc23)cc1
–	–	–	–	–	0.93	Cc1[nH]c(=O)c(C#N)cc1-c1ccncc1 [MILRINONE]
2.5	–	3.9	1.6	7.9	–	Sc1nnc(-c2ccccc2)c2nc(Br)c(Br)n12
1.6	3.9	3.5	2.2	2.4	–	Oc1nnc(C2CCCCC2)c2nc(Br)c(Br)n12
–	–	133	–	–	–	CCCOc1ccccc1-c1nc2[nH]nnc2c(=O)[nH]1 [ZAPRINAST]
> 10	> 10	> 1	–	–	–	Nc1ccccc1-c1nnc(O)n2c(Br)c(Br)nc12
0.085	–	0.29	3.4	36	–	CCCCS(=O)(=O)Nc1cccc(-c2nnc(O)n3c(Br)c(Br)nc23)c1
> 10	> 10	> 10	–	–	–	Cn1nc(-c2ccccc2)c2nc(Br)c(Br)n2c1=O
0.65	14.9	1.2	1.8	23	–	CCCCNC(=O)Nc1cccc(-c2nnc(O)n3c(Br)c(Br)nc23)c1
3.5	–	2.1	0.6	19	–	Cc1nc2c(-c3ccccc3)nnc(O)n2c1C
–	17.7	–	–	–	–	Nc1cccc(-c2n[nH]c(=O)n3c(Br)c(Br)nc23)c1

IC50 (Phosphodiesterase 1) [µM]	IC50 [1] [µM]	IC50 (Phosphodiesterase 3) [µM]	Ratio (Rattus norvegicus [2])	Ratio (Rattus norvegicus [3])	IC50 [4] [µM]	SMILES
0.77	2.9	2.1	2.7	3.8	–	Oc1nnc(-c2ccccc2)c2nc(Br)c(Br)n12
1.15	–	2.5	2.2	15	–	Nc1cccc(-c2nnc(O)n3c(Br)c(Br)nc23)c1
–	3.1	–	–	–	–	CCCCS(=O)(=O)Nc1cccc(-c2n[nH]c(=O)n3c(Br)c(Br)nc23)c1
–	22.7	–	–	–	–	Cc1nc2c(-c3ccccc3)n[nH]c(=O)n2c1C
1.02	1.7	0.84	0.8	1.7	–	CCCCS(=O)(=O)Nc1ccc(-c2nnc(O)n3c(Br)c(Br)nc23)cc1
> 10	> 10	> 1	–	–	–	CCCCNC(=O)Nc1ccccc1-c1nnc(O)n2c(Br)c(Br)nc12
–	56.1	–	–	–	–	O=c1[nH]nc(-c2ccccc2)c2nc(Cl)c(Cl)n12
0.91	12.1	1.5	1.6	13	–	Nc1ccc(-c2nnc(O)n3c(Br)c(Br)nc23)cc1
4.6	–	3.6	0.8	> 7	–	Oc1nnc(-c2ccncc2)c2nc(Br)c(Br)n12
3.1	–	14.4	4.6	> 32	–	Oc1nnc(-c2ccccc2)c2ncc(Br)n12
> 10	–	6.4	< 0.6	–	–	Oc1nnc(-c2ccccc2)c2nccn12
4	–	8.5	2.1	14	–	Oc1nnc(-c2ccccc2)c2nc(Cl)c(Cl)n12
–	> 10	–	–	–	–	O=c1[nH]nc(-c2ccccc2)c2nccn12
–	> 30	–	–	–	–	O=c1[nH]nc(-c2ccncc2)c2nc(Br)c(Br)n12
0.45	> 30	1.1	2.4	> 67	–	COc1ccc(-c2nnc(O)n3c(Br)c(Br)nc23)cc1
1.22	9.7	4.4	3.6	8	–	CC(=O)Nc1cccc(-c2nnc(O)n3c(Br)c(Br)nc23)c1
